According to the NIST ThermoML archive (doi:10.1016/j.fluid.2014.07.038):
± gives the expanded uncertainty stated by the source.

Settings: Liquid; pulse heating to limit of superheat

O=Cc1ccccc1C(=O)O [2-carboxybenzaldehyde] gave a Critical pressure of 4800 ± 300 kPa and a Critical temperature of 864 ± 18 K.
Work on O=C(O)c1ccccc1 [benzoic acid] yielded a Critical pressure of 4530 ± 200 kPa and a Critical temperature of 755 ± 16 K.
For OCc1ccccc1 [benzenemethanol], the Critical pressure was 4330 ± 200 kPa and the Critical temperature was 713 ± 14 K.
For CCCCCCCCCCCCCC(=O)OC [methyl tetradecanoate], the Critical pressure was 1320 ± 80 kPa and the Critical temperature was 730 ± 14 K.
For Cc1ccccc1C(=O)O [2-methylbenzoic acid], the Critical pressure was 3920 ± 240 kPa and the Critical temperature was 763 ± 16 K.
CC(C)(CO)CO [2,2-dimethyl-1,3-propanediol] gave a Critical pressure of 4200 ± 400 kPa and a Critical temperature of 687 ± 20 K.
Work on CCCCCCCC/C=C\CCCCCCCC(=O)OC [methyl cis-9-octadecenoate] yielded a Critical pressure of 1210 ± 80 kPa and a Critical temperature of 777 ± 16 K.
With Cc1ccc(C(=O)O)cc1 [4-methylbenzoic acid] the Critical pressure was 3800 ± 200 kPa and the Critical temperature was 775 ± 16 K.
Compound Cc1ccc(CO)cc1 [1-(hydroxymethyl)-4-methylbenzene] has a Critical pressure of 3610 ± 200 kPa and a Critical temperature of 719 ± 14 K.
Compound OCCCO [propan-1,3-diol] has a Critical pressure of 6380 ± 520 kPa and a Critical temperature of 721 ± 22 K.
Compound CCCCCCCCCCCCCCCCCC(=O)OC [methyl octadecanoate] has a Critical pressure of 1080 ± 60 kPa and a Critical temperature of 785 ± 16 K.
CCCCCCCCCCCCCCCC(=O)OC [methyl hexadecanoate] showed a Critical pressure of 1170 ± 80 kPa and a Critical temperature of 760 ± 16 K.
In the case of Cc1ccc(C=O)cc1 [4-methylbenzaldehyde], the Critical pressure is reported as 3800 ± 200 kPa and the Critical temperature is reported as 712 ± 14 K.
Work on Cc1cccc(C(=O)O)c1 [3-methylbenzoic acid] yielded a Critical pressure of 3850 ± 240 kPa and a Critical temperature of 771 ± 16 K.
O=Cc1ccccc1 [benzaldehyde] gave a Critical pressure of 4410 ± 200 kPa and a Critical temperature of 692 ± 14 K.
